Data on 1 molecule can be found in patent publication US10300143B2, “Compositions for treating cancer and methods for making the same” (THE BRIGHAM AND WOMEN'S HOSPITAL, INC., priority 2012, dated 2019).

Series [1] has as its system phosphorylation of Akt in 4T1 cells. Nature of the series: Western blot assay of phospho AKT in cells. Format: cell-based, murine. As for the experimental part:
The protein was collected and protein lysates were electrophoresed. Then membranes were incubated with Phospho AKT, total AKT and actin antibodies overnight at 4° C. After appropriate amount of washing with TBST, membranes were incubated with horseradish peroxidase-conjugated secondary antibody for 1 hour. Detection was done using G-box (Syngene) and densitometric quantification was done by image J software. […] When cells were 70% confluent, they were incubated in serum free media for 6 hours. Then, free drug or equivalent amount of drug loaded nanoparticles were added in appropriate concentration in serum deprived media (1% FBS). […] Amount of protein was measured by […] and equal amount of protein lysates were electrophoresed on a 4-20% polyacrylamide gel, transferred to polyvinylidene difluoride membrane, and blocked in TBST-T with 5% dry milk. Then membranes were incubated in TBST with Phospho AKT (S473) (1:500 dilution), total AKT (1:1000 dilution), and actin (1:2000 dilution) antibodies (all antibodies from Cell Signalling Technology) overnight at 4° C. After appropriate amount of washing with TBST, membranes were incubated with horseradish peroxidase-conjugated secondary antibody for 1 hour. Detection was done using G-Box™ from Syngene and densitometric quantification was done by image J™ software.
(In general: In western blotting, separated proteins are transferred to a membrane and probed.)

For series [2], the system named is phospho AKT, phospho mTOR, phospho 4EBP in 4T1 tumors. Put plainly: Western blot assay of in vivo 4T1 tumor samples. Set-up: species or system BALB/c mice. As to conditions: single injection 5 mg/kg, 72 hours. As for the experimental part: For animal tissue, tumor stored in −80° C. were pulverized in a mortar and pestle using liquid nitrogen, then treated with RIPA buffer to extract the protein. Amount of protein was measured by BCA assay and equal amount of protein lysates were electrophoresed on a polyacrylamide gel, then transferred to polyvinylidene difluoride membrane, (BIO-RAD) and blocked in with 5% milk solution. Then membranes were incubated with appropriate concentration of primary antibody overnight at 4° C., followed by horseradish peroxidase-conjugated secondary antibody for 1 hour. Detection was done using G-box from SYNGENE and densitometric quantification was done by IMAGE-J software.
For animal tissue, tumor stored in −80° C. were pulverized in a mortar and pestle using liquid nitrogen, then treated with RIPA buffer to extract the protein. Amount of protein was measured by BCA assay and equal amount of protein lysates were electrophoresed on a polyacrylamide gel, then transferred to polyvinylidene difluoride membrane, (Bic-Rad) and blocked in with 5% milk scullion. Then membranes were incubated with appropriate concentration of primary antibody (all antibodies from Cell Signalling Technology) overnight at 4° C., followed by horseradish peroxidase-conjugated secondary antibody for 1 hour. Detection was done using G-box from Syngene and densitometric quantification was done by image J™ software.

The conditions of series [3]: cited from earlier work.
For the next series, the system named is PI3K. As to conditions: cited from earlier work.
A further series has as its system 4T1 breast cancer tumors. Put plainly: Efficacy study of SNPs in murine 4T1 breast cancer model. As to conditions: 5 mg/kg PI103 equivalent, 3 injections every other day. In kind it is in vivo, BALB/c mice. As for the experimental part: 4T1 breast cancer cells ([…]) were implanted subcutaneously in the flanks of 4-week-old BALB/c mice. The drug therapy was started on day 9. The drug therapy consisted of administration of PBS (for Control group), free drug (5 mg/kg) and SNPs (5 mg/kg). For PI103-SNPs, the drug therapy also consisted iRGD-PI103-SNPs group (5 mg/kg). The tumor volumes and body weights were monitored on every alternate day for 11 days.
The drug therapy was started on day 9. For PI828-SNPs, the drug therapy consisted of administration of PBS (for Control group), free PI-828 (5 mg/kg) and PI828-SNPs (5 mg/kg). For PI103-SNPs, the drug therapy consisted of administration of PBS (for control group), free PI-103 (5 mg/kg) and PI103-SNPs (5 mg/kg) and 1RGD-PI103-SNPs (5 mg/kg) (administered by tail-vain injection). The tumor volumes and body weights were monitored on every alternate day for 11 days. […] The animals were sacrificed when the average tumor volume of the control exceeded 2000 mm3 in the control group.

Series [4] deals with PI3K-overexpressing 4306 ovarian cancer cell line. Put plainly: Cell viability (MTS) assay. Format: cell-based. On the procedure:
(§1) 4T1 and MDA MB 468 breast cancer cells were cultured in RPMI, 4306 ovarian cancer cells were cultured in DMEM, supplemented with 10% FBS and 1% of Antibiotic-Antimycotic 100× solution. 4×10^3 Cells were seeded into 96-well flat-bottomed plates. Free drug or drug loaded nanoparticles (normalized to equivalent amounts of free drug) were added in triplicate in each 96-well plate and then plates were incubated in 5% CO^2 atmosphere at 37° C. After desired time period of incubation, cells were washed and incubated with 100 μL phenol-red free medium (without FBS) containing 20 μl of the CellTiter 96 Aqueous One Solution reagents (PROMEGA, WI). After 2 hours incubation, the absorbance in each well was recorded.
(§2) 4T1 and MDA MB 468 breast cancer cells were cultured in RPMI, 4306 ovarian cancer cells were cultured in DMEM, supplemented with 10% FBS and 1% of Antibiotic-Antimycotic 100× solution (Invitrogen, 15240-062). 4×10^3 Cells were seeded into 96-well flat-bottomed plates. Free drug or drug loaded nanoparticles (normalized to equivalent amounts of free drug) was added in triplicate in each 96-well plate at appropriate concentrations (1, 10, 100 nM and 1, 10, and […]) and then plates were incubated in 5% CO2 atmosphere at 37° C. After desired time period of incubation, cells were washed and incubated with […] phenol-red free medium (without FBS) containing […] of the CellTiter 96 Aqueous One Solution reagents (Promega, WI). After 2 hours incubation in a 5% CO2 atmosphere at 37° C., the absorbance in each well was recorded at 490 nm using an Epoch plate reader (Biotek instruments, VT). The absorbance reflects the number of surviving cells. Blanks were subtracted from all data and results analyzed using GraphPad Prism™ software (GraphPad, San Diego, Calif.). Each experiment was independently repeated thrice and data shown is mean±SE of n=3.

The test system of series [5] is MDA-MB-468 human breast cancer cell line. Nature of the series: Cell viability (MTS) assay. Format: cell-based. On the procedure: as §1, §2
Series [6] deals with 4T1 murine breast cancer cell line. Put plainly: Cell viability (MTS) assay. Format: cell-based. As to conditions: Mus musculus. On the procedure:
as §1, §2

“Also recorded” adds a separate entry of the source.

For the molecule `Oc1cccc(-c2nc(N3CCOCC3)c3oc4ncccc4c3n2)c1` [PI103], in series [1] (4 hours exposure, wash, followed to 48 hours), the “phosphorylation of AKT after transient exposure” value was “rebound increase in phosphorylation of AKT”. For the same molecule, the “basal phosphorylation of Akt” value in series [1] (equimolar PI103 (5 pM), continuous incubation, 48 hours) is “inhibited basal phosphorylation of Akt even at 48 hours of continuous incubation”. For the same molecule, in series [2], the “intratumoral Akt phosphorylation” value is listed as “intratumoral Akt phosphorylation was inhibited”. Besides, in series [3], the aqueous solubility result is “limited aqueous solubility”. In addition, the PI3K inhibitory potency entry in the series with PI3K was “excellent potency in the low nanomolar range; also recorded: more potent”. In addition, the tumor growth entry in the series on 4T1 breast cancer tumors is recorded as “tumor growth inhibition relative to PBS-treated controls, but tumor rebound was observed after the treatment was stopped”. The IC50 in series [4] (48 hours) is 286 ± 45 nM; in series [4] (72 hours) it was 392 ± 49.3 nM; in series [5] (48 hours), 445 ± 67 nM; in series [5] (72 hours), 312 ± 49 nM; in series [6] (48 hours), 122 ± 3.15 nM; in series [6] (72 hours), 67.3 ± 3.4 nM.

For orientation: IC50 means the midpoint of a concentration-inhibition curve. The low end stands for greater potency, the high end for weaker potency.
